Results reported in patent US10688099B2, “Methods for modulating the amount of RNA transcripts” (PTC Therapeutics, Inc., priority 2013, dated 2020).

System: RNA isoforms in PNN 1-46 SMA type I patient-derived fibroblasts
Test: RNA Abundance Modulation (RNA isoform abundance, iFPM, HiSeq RNA sequencing)
Format: cell-based, human
Details: 3 μM
Experimental: Cells from a cell line of interest are cultured in conditions sufficient to yield the number of cells capable of generating enough RNA for subsequent sequencing steps. Cells from the tested cell line are contacted with a compound described herein.
To culture said cells, they are seeded, at appropriate concentrations in a volume of media in a cell culture container and incubated for 4, 5, 6, 7, 8, 9, 10, or more hours. A concentrated solution of compound in a vehicle (e.g., DMSO) is then added in sufficient volume to result in the intended final concentration of the compound, for example 100 nM, 500 nM, 1 μM, 5 μM, 10 μM, 15 μM, 20 μM, or more. The cells may also be treated with vehicle alone, as a control. A number of replicates of each concentration or control may be made (e.g., 2 replicates). The cells are then incubated at a constant temperature appropriate for cell culture of the particular cell line (e.g., 37° C.) for 6, 12, 18, 24, 48, or more hours. After incubation, the growth medium is removed and the cells are washed with the appropriate buffer (e.g., PBS). Cells are then removed from adherence to the cell culture container by treatment with a solution containing trypsin, and the trypsin subsequently quenched with the appropriate volume of buffer (e.g., DMEM-FBS). The cells are then pelleted with gentle centrifugation (e.g., ≤90×g centrifugal force) and resuspended in a buffer to lyse the cells for extraction of RNA. The cell lysates may then be frozen (e.g., at −80° C.) or, alternately, may immediately be used in a procedure to purify the RNA (e.g. by use of the RNEASY PLUS® minikit). The RNA from cell lysates is eluted in the appropriate volume of buffer (e.g., RNEASE-FREE H2O®). The resulting purified RNA may then be sequenced (e.g., using RNASeq) or analyzed using a human exon array (e.g., by GENECHIP® human exon array) to determine changes in the RNA levels in those cells treated with compound compared to those cells treated only with DMSO. The purified RNA may also be quantified by other methods known in the art.
Using the RNA data obtained from sequencing, exon array, or other methods, a statistical analysis can reveal changes in the RNA levels of compound-treated compared with control. For example, t-test p-values may be calculated for the data obtained through sequencing and exon array methods in order to compare compound-treated cells to those treated with the DMSO control. […] Analysis of the sequencing and exon array data may then also yield predictions about the cause of the aberrant amount of an RNA transcript in the cells (e.g., perturbation of RNA splicing, RNA transcription, or RNA stability). These predictions may be further confirmed by methods known in the art. For example, RT-PCR and RT-qPCR may be used to confirm the change in amount of RNA transcripts for one or more particular transcripts of interest.
Following the methods described above in Example 1, PNN 1-46 SMA type I patient-derived fibroblasts were treated with 300 nM or 3 μM Compounds 774 and 808 in 0.5% DMSO.
700,000 cells were seeded in 10 mL of medium (DMEM plus 10% FBS) in a T-75 flask. Cells were allowed to attach for at least 4 hrs, after which 50 μL of a 200× compound solution (100% DMSO) was added to each well, and the plate was incubated at 37° C. for 24 hrs.
At the end of the incubation period, the supernatant was removed and the cells where washed with PBS. TrypLE (Invitrogen) express solution was added (e.g. 1.5 mL per one T75 flask). The flasks were incubated for 3 to 5 min at 37° C. The trypsin was then quenched, e.g., by adding 10 mL DMEM-FBS.
Next, the cells were pelleted using gentle centrifugation without exceeding 90×g centrifugal force. The supernatant was removed and the cell pellet was re-suspended in 600 μL RLT buffer (the RLT buffer was supplemented with beta-mercaptoethanol according to the RNeasy protocol manual) by pipetting up and down until the pellet was completely dissolved […]

CCc1nc(C)cn2nc(-c3cc(=O)n4cc(C5CCN(C)CC5)cc(C)c4n3)cc12 [Compound 774]
amp FC (x + 1) (TGFBRAP1 NM_004257): 156.98
ave Cpd (TGFBRAP1 NM_004257): 0 iFPM
FC (x + 1) (TGFBRAP1 NM_001142621): 1.6224
L2FC (x + 1) (TGFBRAP1 NM_001142621): 0.698
L2abs (Cpd-DMSO) (TGFBRAP1 NM_001142621): 7.42
abs (Cpd-DMSO) (TGFBRAP1 NM_001142621): 172 iFPM
amp FC (x + 1) (TGFBRAP1 NM_001142621): 1.62
ave Cpd (TGFBRAP1 NM_001142621): 446 iFPM
FC (x + 1) (THADA AK025445): 0.2651
L2FC (x + 1) (THADA AK025445): −1.915
L2abs (Cpd-DMSO) (THADA AK025445): 5.17
abs (Cpd-DMSO) (THADA AK025445): 36 iFPM
amp FC (x + 1) (THADA AK025445): 3.77
ave Cpd (THADA AK025445): 12 iFPM
FC (x + 1) (THADA AK126824): 0.1808
L2FC (x + 1) (THADA AK126824): −2.468
L2abs (Cpd-DMSO) (THADA AK126824): 2.55
abs (Cpd-DMSO) (THADA AK126824): 6 iFPM
amp FC (x + 1) (THADA AK126824): 5.53
ave Cpd (THADA AK126824): 0 iFPM
FC (x + 1) (THADA AK307915): 0.2071
L2FC (x + 1) (THADA AK307915): −2.272
L2abs (Cpd-DMSO) (THADA AK307915): 3.71
abs (Cpd-DMSO) (THADA AK307915): 13 iFPM
amp FC (x + 1) (THADA AK307915): 4.83
ave Cpd (THADA AK307915): 2 iFPM
FC (x + 1) (THADA AL832141): 1.7328
L2FC (x + 1) (THADA AL832141): 0.793
L2abs (Cpd-DMSO) (THADA AL832141): 0.72
abs (Cpd-DMSO) (THADA AL832141): 2 iFPM
amp FC (x + 1) (THADA AL832141): 1.73
ave Cpd (THADA AL832141): 3 iFPM
FC (x + 1) (THADA AY149632): 1.0000
L2FC (x + 1) (THADA AY149632): 0.000
L2abs (Cpd-DMSO) (THADA AY149632): 0
abs (Cpd-DMSO) (THADA AY149632): 0 iFPM
amp FC (x + 1) (THADA AY149632): 1.00
ave Cpd (THADA AY149632): 0 iFPM
FC (x + 1) (THADA BX641038): 0.6958
L2FC (x + 1) (THADA BX641038): −0.523
L2abs (Cpd-DMSO) (THADA BX641038): 0.60
abs (Cpd-DMSO) (THADA BX641038): 2 iFPM
amp FC (x + 1) (THADA BX641038): 1.44
ave Cpd (THADA BX641038): 2 iFPM
FC (x + 1) (THADA NM_022065): 0.3170
L2FC (x + 1) (THADA NM_022065): −1.658
L2abs (Cpd-DMSO) (THADA NM_022065): 9.36
abs (Cpd-DMSO) (THADA NM_022065): 657 iFPM
amp FC (x + 1) (THADA NM_022065): 3.15
ave Cpd (THADA NM_022065): 304 iFPM
FC (x + 1) (THADA NM_001083953): 0.0135
L2FC (x + 1) (THADA NM_001083953): −6.211
L2abs (Cpd-DMSO) (THADA NM_001083953): 6.19
abs (Cpd-DMSO) (THADA NM_001083953): 73 iFPM
amp FC (x + 1) (THADA NM_001083953): 74.06
ave Cpd (THADA NM_001083953): 0 iFPM
FC (x + 1) (THADA NM_001271643): 1.1557
L2FC (x + 1) (THADA NM_001271643): 0.209
L2abs (Cpd-DMSO) (THADA NM_001271643): 2.41
abs (Cpd-DMSO) (THADA NM_001271643): 5 iFPM
amp FC (x + 1) (THADA NM_001271643): 1.16
ave Cpd (THADA NM_001271643): 38 iFPM
FC (x + 1) (THADA NM_001271644): 4.4176
L2FC (x + 1) (THADA NM_001271644): 2.143
L2abs (Cpd-DMSO) (THADA NM_001271644): 3.80
abs (Cpd-DMSO) (THADA NM_001271644): 14 iFPM
amp FC (x + 1) (THADA NM_001271644): 4.42
ave Cpd (THADA NM_001271644): 17 iFPM
FC (x + 1) (THADA NR_073394): 0.6844
L2FC (x + 1) (THADA NR_073394): −0.547
L2abs (Cpd-DMSO) (THADA NR_073394): −0.13
abs (Cpd-DMSO) (THADA NR_073394): 1 iFPM
amp FC (x + 1) (THADA NR_073394): 1.46
ave Cpd (THADA NR_073394): 1 iFPM
FC (x + 1) (TIMP2 AK294290): 0.0109
